Source: patent US9012443B2 (Amgen Inc., priority 2011, dated 2015)

Molecular target: Nav 1.7 (Homo sapiens (Human), UniProt Q15858)
Assay: Nav 1.7 in vitro PX assay (PatchXpress whole cell voltage clamp)
Assay type: cell-based
Conditions: 293 cells, human Nav1.7, partially inactivated state; read-out: Nav1.7 PX IC50 IP
Experimental: Nav 1.7 In Vitro PX Assay
293 cells stably transfected with human Nav1.7 were recorded in whole cell voltage clamp mode with the PatchXpress automated electrophysiology system (Molecular Devices, LLC, Sunnyvale, Calif.). Compound effects were measured on a partially inactivated state of the sodium channel. Cells were clamped to a holding potential yielding 20 to 50% inactivation. To elicit sodium current, channels were activated by pulsing to −10 mV for 20 msec. […] A single concentration of test compound was applied to cells for a duration of 3 minutes. Peak sodium current was measured at the end of the compound addition period to determine percent inhibition. Three to five cells were tested per concentration, and IC50 curves were fitted to percent inhibition as a function of concentration.

Sequence of Nav 1.7 (Q15858 whole entry): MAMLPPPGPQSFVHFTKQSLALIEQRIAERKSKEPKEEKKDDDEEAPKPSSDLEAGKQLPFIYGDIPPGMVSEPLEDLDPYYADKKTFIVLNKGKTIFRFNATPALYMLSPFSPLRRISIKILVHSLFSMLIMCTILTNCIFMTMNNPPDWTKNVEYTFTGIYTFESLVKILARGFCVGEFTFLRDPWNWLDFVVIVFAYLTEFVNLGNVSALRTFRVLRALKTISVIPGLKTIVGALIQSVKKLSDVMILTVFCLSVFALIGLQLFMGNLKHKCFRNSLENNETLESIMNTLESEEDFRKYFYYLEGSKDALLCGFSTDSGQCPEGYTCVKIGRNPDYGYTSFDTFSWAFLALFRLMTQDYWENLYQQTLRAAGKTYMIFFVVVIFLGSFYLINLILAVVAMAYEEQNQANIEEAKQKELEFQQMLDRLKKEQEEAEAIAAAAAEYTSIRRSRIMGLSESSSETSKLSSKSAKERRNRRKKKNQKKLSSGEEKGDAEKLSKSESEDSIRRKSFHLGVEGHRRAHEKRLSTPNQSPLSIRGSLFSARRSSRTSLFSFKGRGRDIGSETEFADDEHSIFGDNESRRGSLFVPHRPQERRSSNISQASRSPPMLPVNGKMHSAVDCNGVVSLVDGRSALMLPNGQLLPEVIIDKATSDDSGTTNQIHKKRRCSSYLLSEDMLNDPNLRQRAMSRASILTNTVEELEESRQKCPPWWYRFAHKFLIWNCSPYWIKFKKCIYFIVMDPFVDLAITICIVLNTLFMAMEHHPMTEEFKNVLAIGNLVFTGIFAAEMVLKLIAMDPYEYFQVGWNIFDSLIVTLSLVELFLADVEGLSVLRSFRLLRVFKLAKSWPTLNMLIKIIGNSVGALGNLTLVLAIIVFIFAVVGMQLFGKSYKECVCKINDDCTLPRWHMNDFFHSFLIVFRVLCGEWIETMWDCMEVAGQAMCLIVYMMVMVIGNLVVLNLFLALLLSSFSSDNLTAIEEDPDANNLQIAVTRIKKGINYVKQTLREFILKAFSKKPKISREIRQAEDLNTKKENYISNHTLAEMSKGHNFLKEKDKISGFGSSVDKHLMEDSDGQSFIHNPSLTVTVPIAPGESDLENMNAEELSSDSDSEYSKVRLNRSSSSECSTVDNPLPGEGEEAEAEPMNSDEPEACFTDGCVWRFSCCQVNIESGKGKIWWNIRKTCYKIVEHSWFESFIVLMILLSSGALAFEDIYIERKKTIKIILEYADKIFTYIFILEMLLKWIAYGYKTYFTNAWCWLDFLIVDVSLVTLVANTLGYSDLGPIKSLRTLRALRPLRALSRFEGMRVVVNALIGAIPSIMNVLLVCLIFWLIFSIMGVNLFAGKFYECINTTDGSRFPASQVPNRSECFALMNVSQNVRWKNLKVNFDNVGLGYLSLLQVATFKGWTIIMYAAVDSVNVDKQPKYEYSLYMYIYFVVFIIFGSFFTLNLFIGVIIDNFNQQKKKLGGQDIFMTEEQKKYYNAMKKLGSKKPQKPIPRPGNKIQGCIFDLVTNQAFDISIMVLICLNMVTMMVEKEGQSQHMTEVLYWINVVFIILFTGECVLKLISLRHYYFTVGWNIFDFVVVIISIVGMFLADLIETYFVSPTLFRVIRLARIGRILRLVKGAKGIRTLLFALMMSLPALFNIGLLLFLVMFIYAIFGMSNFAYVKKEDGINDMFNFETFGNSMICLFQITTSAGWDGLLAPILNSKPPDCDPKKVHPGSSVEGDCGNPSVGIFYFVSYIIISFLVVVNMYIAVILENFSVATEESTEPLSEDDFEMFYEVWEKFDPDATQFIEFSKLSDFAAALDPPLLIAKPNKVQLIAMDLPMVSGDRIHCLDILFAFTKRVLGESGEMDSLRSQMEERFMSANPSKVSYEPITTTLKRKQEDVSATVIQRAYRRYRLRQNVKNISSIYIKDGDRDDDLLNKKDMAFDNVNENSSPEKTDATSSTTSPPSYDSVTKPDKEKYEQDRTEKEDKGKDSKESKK

IC50 [µM]	SMILES
1.75	COc1cc(C(F)(F)F)ccc1-c1nccc2cc(S(=O)(=O)Nc3cnsn3)ccc12 [Example 388, 1-(2-METHOXY-4-(TRIFLUOROMETHYL)PHENYL)-N-(1,2,5-THIADIAZOL-3-YL)ISOQUINOLINE-6-SULFONAMIDE]
2.79	COc1cc(C(F)(F)F)ccc1-c1nccc2cc(S(=O)(=O)Nc3ncco3)ccc12 [Example 389, 1-(2-METHOXY-4-(TRIFLUOROMETHYL)PHENYL)-N-(OXAZOL-2-YL)ISOQUINOLINE-6-SULFONAMIDE]
0.761	COc1cc(C#N)ccc1-c1ncc(F)c2cc(S(=O)(=O)Nc3ncns3)ccc12 [Example 395, 1-(4-CYANO-2-METHOXYPHENYL)-4-FLUORO-N-(1,2,4-THIADIAZOL-5-YL)ISOQUINOLINE-6-SULFONAMIDE]
1.04	COc1ncccc1-c1ncc(F)c2cc(S(=O)(=O)Nc3nccs3)ccc12 [Example 396, 4-FLUORO-1-(2-METHOXYPYRIDIN-3-YL)-N-(THIAZOL-2-YL)ISOQUINOLINE-6-SULFONAMIDE]
3.52	N#Cc1ccccc1-c1ncc(F)c2cc(S(=O)(=O)Nc3nccs3)ccc12 [Example 397, 1-(2-CYANOPHENYL)-4-FLUORO-N-(THIAZOL-2-YL)ISOQUINOLINE-6-SULFONAMIDE]
0.682	COc1cc(F)ccc1-c1ncc(C#N)c2cc(S(=O)(=O)Nc3nccs3)ccc12 [Example 399, 4-CYANO-1-(4-FLUORO-2-METHOXYPHENYL)-N-(THIAZOL-2-YL)ISOQUINOLINE-6-SULFONAMIDE]
1.33	COc1ccccc1-c1ncc(C#N)c2cc(S(=O)(=O)Nc3nccs3)ccc12 [Example 400, 4-CYANO-1-(2-METHOXYPHENYL)-N-(THIAZOL-2-YL)ISOQUINOLINE-6-SULFONAMIDE]
0.428	N#CCOc1cc(Cl)ccc1-c1nccc2cc(S(=O)(=O)Nc3ncns3)ccc12 [Example 404, 1-(4-CHLORO-2-(CYANOMETHOXY)PHENYL)-N-(1,2,4-THIADIAZOL-5-YL)ISOQUINOLINE-6-SULFONAMIDE 2,2,2-TRIFLUOROACETATE]
4.97	COc1ncccc1-c1nccc2cc(S(=O)(=O)Nc3nccs3)ccc12 [Example 407, 1-(2-METHOXYPYRIDIN-3-YL)-N-(THIAZOL-2-YL)ISOQUINOLINE-6-SULFONAMIDE]
0.986	COc1nc(Cl)ccc1-c1nccc2cc(S(=O)(=O)Nc3nccs3)ccc12 [Example 408, 1-(6-CHLORO-2-METHOXYPYRIDIN-3-YL)-N-(THIAZOL-2-YL)ISOQUINOLINE-6-SULFONAMIDE]

The next lines start with the compound.

SMILES	IC50 [µM]
COc1cc(F)ccc1-c1cncc2cc(S(=O)(=O)Nc3nccs3)ccc12 [Example 290, 4-(4-FLUORO-2-METHOXYPHENYL)-N-(THIAZOL-2-YL)ISOQUINOLINE-7-SULFONAMIDE]	0.6
COc1cc(C(F)(F)F)ccc1-c1ccnc2cc(S(=O)(=O)Nc3nccs3)ncc12 [Example 294, 4-(2-METHOXY-4-(TRIFLUOROMETHYL)PHENYL)-N-(THIAZOL-2-YL)-1,6-NAPHTHYRIDINE-7-SULFONAMIDE]	2.5
Cc1cc(C#N)ccc1-c1ccnc2cc(S(=O)(=O)Nc3ncns3)ccc12 [Example 323]	2.3
COc1ccccc1-c1c(Br)cnc2cc(S(=O)(=O)Nc3nccs3)ccc12 [Example 325, 3-BROMO-4-(2-METHOXYPHENYL)-N-(THIAZOL-2-YL)QUINOLINE-7-SULFONAMIDE]	5.11
COc1cc(C(F)(F)F)ccc1-c1ccnc2cc(S(=O)(=O)Nc3nccs3)c(OC)cc12 [Example 327, 6-METHOXY-4-(2-METHOXY-4-(TRIFLUOROMETHYL)PHENYL)-N-(THIAZOL-2-YL)QUINOLINE-7-SULFONAMIDE]	2.34
COc1cc(C(F)(F)F)ccc1-c1ccnc2c(C)c(S(=O)(=O)Nc3nccs3)ccc12 [Example 328, 4-(2-METHOXY-4-(TRIFLUOROMETHYL)PHENYL)-8-METHYL-N-(THIAZOL-2-YL)QUINOLINE-7-SULFONAMIDE]	6.87
COc1cc(-c2cccc(F)c2)c(Cl)cc1-c1nccc2cc(S(=O)(=O)Nc3ncns3)ccc12 [Example 331, 1-(2-CHLORO-3′-FLUORO-5-METHOXY-[1,1′-BIPHENYL]-4-YL)-N-(1,2,4-THIADIAZOL-5-YL)ISOQUINOLINE-6-SULFONAMIDE]	0.023
COc1cc(-c2cccc(F)c2)c(Cl)cc1-c1nccc2cc(S(=O)(=O)Nc3cnsn3)ccc12 [Example 334, 1-(2-CHLORO-3′-FLUORO-5-METHOXY-[1,1′-BIPHENYL]-4-YL)-N-(1,2,5-THIADIAZOL-3-YL)ISOQUINOLINE-6-SULFONAMIDE]	0.109
COc1cc(-c2ccc(F)nc2)ccc1-c1nccc2cc(S(=O)(=O)Nc3ccncn3)ccc12 [Example 352, 1-(4-(6-FLUOROPYRIDIN-3-YL)-2-METHOXYPHENYL)-N-(PYRIMIDIN-4-YL)ISOQUINOLINE-6-SULFONAMIDE]	1.87
COc1ccc(C2=CCOCC2)cc1-c1nccc2cc(S(=O)(=O)Nc3ccncn3)ccc12 [Example 353, 1-(5-(3,6-DIHYDRO-2H-PYRAN-4-YL)-2-METHOXYPHENYL)-N-(PYRIMIDIN-4-YL)ISOQUINOLINE-6-SULFONAMIDE]	5.17
Cc1cc(Cl)ccc1-c1nccc2cc(S(=O)(=O)Nc3ccncn3)ccc12 [Example 357]	1.85
Cc1cc(C#N)ccc1-c1nccc2cc(S(=O)(=O)Nc3ncns3)ccc12 [Example 359]	2.38
COc1cc(OCC(F)(F)F)ccc1-c1nccc2cc(S(=O)(=O)Nc3ccncn3)ccc12 [Example 362, 1-(2-METHOXY-4-(2,2,2-TRIFLUOROETHOXY)PHENYL)-N-(PYRIMIDIN-4-YL)ISOQUINOLINE-6-SULFONAMIDE]	1.07
COc1cc(-c2cccnc2)c(F)cc1-c1nccc2cc(S(=O)(=O)Nc3nncs3)ccc12 [Example 367, 1-(5-FLUORO-2-METHOXY-4-(PYRIDIN-3-YL)PHENYL)-N-(1,3,4-THIADIAZOL-2-YL)ISOQUINOLINE-6-SULFONAMIDE]	1.42
COc1cc(-c2cc(F)cc(F)c2)ccc1-c1nccc2cc(S(=O)(=O)Nc3nnco3)ccc12 [Example 372, 1-(3′,5′-DIFLUORO-3-METHOXY-[1,1′-BIPHENYL]-4-YL)-N-(1,3,4-OXADIAZOL-2-YL)ISOQUINOLINE-6-SULFONAMIDE]	16.6
N#CCOc1cc(Cl)ccc1-c1nccc2cc(S(=O)(=O)Nc3ccncn3)ccc12 [Example 376, 1-(4-CHLORO-2-(CYANOMETHOXY)PHENYL)-N-(PYRIMIDIN-4-YL)ISOQUINOLINE-6-SULFONAMIDE 2,2,2-TRIFLUOROACETATE]	2.94
Cc1cnc(F)c(-c2nccc3cc(S(=O)(=O)Nc4nccs4)ccc23)c1 [Example 377, 1-(2-FLUORO-5-METHYLPYRIDIN-3-YL)-N-(THIAZOL-2-YL)ISOQUINOLINE-6-SULFONAMIDE]	24.5
Cc1cnc(OC2CCNCC2)c(-c2nccc3cc(S(=O)(=O)Nc4nccs4)ccc23)c1 [Example 378, 1-(5-METHYL-2-(PIPERIDIN-4-YLOXY)PYRIDIN-3-YL)-N-(THIAZOL-2-YL)ISOQUINOLINE-6-SULFONAMIDE]	2.42
CC(C)(O)c1ccccc1-c1nccc2cc(S(=O)(=O)Nc3nccs3)ccc12 [Example 384, 1-(2-(2-HYDROXYPROPAN-2-YL)PHENYL)-N-(THIAZOL-2-YL)ISOQUINOLINE-6-SULFONAMIDE]	6.71
N#Cc1cc(C(F)(F)F)ccc1-c1nccc2cc(S(=O)(=O)Nc3nccs3)ccc12 [Example 386, 1-(2-CYANO-4-(TRIFLUOROMETHYL)PHENYL)-N-(THIAZOL-2-YL)ISOQUINOLINE-6-SULFONAMIDE]	1.39
